{"source": "patent US20160000852A1", "about": "“NUTRIENT COMBINATIONS FOR AFFECTING AN AGING PROCESS” (BioMarker Pharmaceuticals, Inc., priority 2013, published 2016)", "format_in_all_cases": "in vivo", "key": {"D-gal exposed mice [1]": {"tested_on": "D-gal exposed mice", "test": "Spatial memory test with the Morris Water Maze (MWM)", "conditions": "D-gal exposure 125 mg/kg/d, 8 weeks; 12 animals", "from_the_text": "The Morris Walter Maze (MWM) was applied to measure cognitive deficiencies in D-gal exposed mice. […] In particular, FIG. 1A illustrates the latency time for finding a platform of control subjects, D-gal subjects and subjects administered Formulas A-C over a period of training days. The subjects, in this case, were mice. Values are illustrated as mean ±SEM of 12 animals. […] In addition, FIG. 1B illustrates the latency distance to the platform of control subjects, D-gal subjects and subjects administered Formulas A-C over the same period of training days as illustrated in FIG. 1A."}, "D-gal exposed mice [2]": {"tested_on": "D-gal exposed mice", "test": "Coordination test with the Rota-Rod", "conditions": "12 animals", "method": "FIG. 2 illustrates a coordination test with the Rota-Rod. In addition, latency to fall was tested. Values are mean ±SEM of 12 animals."}, "D-gal exposed mice [3]": {"tested_on": "D-gal exposed mice", "test": "Grip strength test (forelimb)", "conditions": "12 mice", "method": "It should further be understood that a decrease in strength is a reliable indicator of the aging process. In this aspect, the rodent grip strength test is a putative measure of muscular strength and has been previously used to screen for neuromuscular function. FIG. 3 illustrates the results of a grip strength test. In particular, grip strength of forelimb was tested. Values are means ±SEM of 12 mice. **P<0.01 versus Normal group, ^##P<0.01 versus D-gal group, ^###P<0.001 versus D-gal group."}, "[4]": {"tested_on": "mitochondria of gastrocnemius muscle", "test": "Transmission electron microscopy of gastrocnemius muscle mitochondria", "conditions": "D-gal exposed mice", "from_the_text": "To understand the grip strength loss caused by D-gal exposure, the morphology of mice gastrocnemius muscles were further evaluated with transmission electron microscopy. FIGS. 4A-4E illustrate the transmission electron microscopy results of the gastrocnemius muscle. In particular, FIG. 4A illustrates the transmission electron microscopy for the control group of subjects (i.e. mice), FIG. 4B illustrates the transmission electron microscopy for the D-gal group, FIG. 4C illustrates the transmission electron microscopy for the Formula A group, FIG. 4D illustrates the transmission electron microscopy for the Formula B group, FIG. 4E illustrates the transmission electron microscopy for the Formula C group. A magnified view of the upper panels in FIGS. 4A-4E are shown in the lower panels."}, "[5]": {"tested_on": "complex I in gastrocnemius mitochondria", "test": "Complex I activity in gastrocnemius mitochondria", "conditions": "D-gal exposed mice; n=12", "method": "In view of the abnormal mitochondrial morphology in the skeletal muscle of the D-gal treated mice, the activities of some key enzymes in the electron transport chain (ETC) and the tricarboxylic acid (TCA) cycle were further examined.\n(§1) FIG. 7 illustrates the effects of Formulas A-C on the activity of complex I in gastrocnemius and heart mitochondria. Activities of complex I of gastrocnemius (n=12) and heart (n=11) in all groups were assayed. All values are expressed as means ±SEM. **P<0.01 versus Normal group, ^#P<0.05 versus D-gal group, ^##P<0.01 versus D-gal group."}, "[6]": {"tested_on": "complex I in heart mitochondria", "test": "Complex I activity in heart mitochondria", "conditions": "D-gal exposed mice; n=11", "method": "The activity of complex I was also assayed in several other tissues, such as liver, heart, and brain. FIG. 6 illustrates activities of complex I in mitochondria from multiple tissues. As is illustrated by the results shown in FIG. 6, D-gal administration impairs the activity of complex I in gastrocnemius. Values are means ±SEM of 12 mice in gastroanemius, 11 mice in heart and 12 mice in brain and liver. **P<0.01 versus Normal group.\nas §1"}}}
{"compound": "O=C[C@H](O)[C@@H](O)[C@@H](O)[C@H](O)CO", "note": "[D-gal, D-galactose]", "values": [{"measurement": "spatial memory (latency time and latency distance to platform) in MWM", "setting": "D-gal exposed mice [1]", "value": "did not affect the escape latency or swimming distance"}, {"measurement": "motor coordination (latency to fall) in Rota-Rod test", "setting": "D-gal exposed mice [2]", "value": "No difference in latency time"}, {"measurement": "grip strength of forelimb", "setting": "D-gal exposed mice [3]", "value": "significantly weaker grip strength"}, {"measurement": "mitochondrial morphology in gastrocnemius muscle", "setting": "[4]", "value": "swollen and elongated mitochondria with obvious cristae disruption"}, {"measurement": "complex I activity in gastrocnemius (skeletal muscle) mitochondria", "setting": "[5]", "value": "only complex I activity was impaired"}, {"measurement": "complex I activity in heart mitochondria", "setting": "[6]", "value": "marginal decrease in heart muscle"}]}
